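48-hour exposure; five concentrations; linearly interpolated endpoints. Abbreviation: GI50, concentration required for 50% inhibition of growth.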 The source made the active and inactive calls. No stated cut-off is given here; in the data, active = GI50 up to about 1.1 µM and inactive = higher.
How the values were obtained:
Assay in all cases: inhibition of tumour cell growth, NCI panel, 48 h
COLO 205 = system: COLO 205
CAKI-1 = system: CAKI-1
NCI-H522 = system: NCI-H522
SF-268 = system: SF-268
DU-145 = system: DU-145
T47D = system: T47D
Malme-3M = system: Malme-3M
HT-29 = system: HT-29
LOX IMVI = system: LOX IMVI
SK-MEL-5 = system: SK-MEL-5
SN12C = system: SN12C
SNB-75 = system: SNB-75
HCC 2998 = system: HCC 2998
HL-60 = system: HL-60
786-0 = system: 786-0
SK-MEL-28 = system: SK-MEL-28
HOP-92 = system: HOP-92
OVCAR-5 = system: OVCAR-5
A498 = system: A498

Row | Compound | GI50 (COLO 205) | GI50 (CAKI-1) | GI50 (NCI-H522) | GI50 (SF-268) | GI50 (DU-145) | GI50 (T47D) | GI50 (Malme-3M) | GI50 (HT-29) | GI50 (LOX IMVI) | GI50 (SK-MEL-5) | GI50 (SN12C) | GI50 (SNB-75) | GI50 (HCC 2998) | GI50 (HL-60) | GI50 (786-0) | GI50 (SK-MEL-28) | GI50 (HOP-92) | GI50 (OVCAR-5) | GI50 (A498)
1 | Nc1ncnc2oc(C3OC(COC(=O)c4ccccc4)C(OC(=O)c4ccccc4)C3OC(=O)c3ccccc3)nc12 (stereo not drawn) | > 100 µM (inactive) | > 100 µM (inactive) | > 100 µM (inactive) | > 100 µM (inactive) | > 100 µM (inactive) | 21.1 µM (inactive) | 96.2 µM (inactive) | > 100 µM (inactive) | > 100 µM (inactive) | > 100 µM (inactive) | > 100 µM (inactive) | 29.2 µM (inactive) | > 100 µM (inactive) | > 100 µM (inactive) | > 100 µM (inactive) | > 100 µM (inactive) | > 100 µM (inactive) | > 100 µM (inactive) | 14.8 µM (inactive)
2 | C[Si](C)(C)OC1c2[nH]c3ccccc3c2CN2C(=O)CCC12 (stereo not drawn) | > 100 µM (inactive) | > 100 µM (inactive) | > 100 µM (inactive) | > 100 µM (inactive) | > 100 µM (inactive) | > 100 µM (inactive) |  | > 100 µM (inactive) | > 100 µM (inactive) | > 100 µM (inactive) | > 100 µM (inactive) | > 100 µM (inactive) | > 100 µM (inactive) | > 100 µM (inactive) | > 100 µM (inactive) | > 100 µM (inactive) | > 100 µM (inactive) | > 100 µM (inactive) | > 100 µM (inactive)
3 | CC(=O)Nc1cc([As](=O)(O)O)ccc1O [ACETARSONE] | > 100 µM (inactive) | > 100 µM (inactive) | > 100 µM (inactive) | > 100 µM (inactive) | > 100 µM (inactive) | > 100 µM (inactive) | > 100 µM (inactive) | > 100 µM (inactive) | > 100 µM (inactive) | > 100 µM (inactive) | > 100 µM (inactive) | > 100 µM (inactive) | > 100 µM (inactive) | > 100 µM (inactive) | > 100 µM (inactive) | > 100 µM (inactive) | > 100 µM (inactive) | > 100 µM (inactive) | > 100 µM (inactive)
4 | CCc1cccc(C(C)(C)C)c1NC(=S)N/C=C(/C#N)C(N)=O | > 100 µM (inactive) | > 100 µM (inactive) | > 100 µM (inactive) | > 100 µM (inactive) | > 100 µM (inactive) | 95.5 µM (inactive) | > 100 µM (inactive) | > 100 µM (inactive) | > 100 µM (inactive) | > 100 µM (inactive) | > 100 µM (inactive) | 30.9 µM (inactive) | > 100 µM (inactive) | 93.1 µM (inactive) | > 100 µM (inactive) | > 100 µM (inactive) | 14 µM (inactive) | > 100 µM (inactive) | > 100 µM (inactive)
5 | CCN(CC)CCNc1ccc2ncn3c4cc(OC)c(OC)c(O)c4c(=O)c1c23 | 1.33 µM (inactive) | 14 µM (inactive) | 12.6 µM (inactive) | 3.49 µM (inactive) | 10.2 µM (inactive) | 21.8 µM (inactive) | 18 µM (inactive) | 3.8 µM (inactive) | 1.24 µM (inactive) | 15.5 µM (inactive) | 6.47 µM (inactive) | 2.78 µM (inactive) | 10.5 µM (inactive) | 11 µM (inactive) | 4.01 µM (inactive) | 14.4 µM (inactive) | 1.61 µM (inactive) | 21.5 µM (inactive) | 15.5 µM (inactive)
6 | C=C(C)[C@H]1[C@@H]2OC(=O)[C@H]1[C@]1(O)C[C@H]3OC34C(=O)O[C@H]2[C@@]41C.CC(C)(O)[C@H]1[C@@H]2OC(=O)[C@H]1[C@]1(O)C[C@H]3OC34C(=O)O[C@H]2[C@@]41C (stereo partly drawn) | > 100 µM (inactive) | > 100 µM (inactive) | > 100 µM (inactive) | > 100 µM (inactive) | > 100 µM (inactive) | > 100 µM (inactive) | > 100 µM (inactive) | > 100 µM (inactive) | > 100 µM (inactive) | > 100 µM (inactive) | > 100 µM (inactive) | > 100 µM (inactive) | > 100 µM (inactive) | > 100 µM (inactive) | > 100 µM (inactive) | > 100 µM (inactive) | > 100 µM (inactive) | > 100 µM (inactive) | > 100 µM (inactive)
7 | CCCCCC(C/C=N/N(C)C)C(O)(C(F)(F)F)C(F)(F)F (stereo not drawn) | 16.3 µM (inactive) | 43.6 µM (inactive) | 19.7 µM (inactive) | 36.7 µM (inactive) | 33.3 µM (inactive) | 25.9 µM (inactive) | 25.4 µM (inactive) | 29 µM (inactive) | 43.2 µM (inactive) | 16.6 µM (inactive) | 28.2 µM (inactive) | 29 µM (inactive) | 35.1 µM (inactive) | 14.2 µM (inactive) | 35.9 µM (inactive) | 45.8 µM (inactive) | 33 µM (inactive) | 65.6 µM (inactive) | 23.7 µM (inactive)
8 | CC(=O)OCC1OC(Nn2c(=O)[nH]c3ccccc3c2=O)C(OC(C)=O)C(OC(C)=O)C1OC(C)=O (stereo not drawn) | > 100 µM (inactive) | > 100 µM (inactive) | > 100 µM (inactive) | > 100 µM (inactive) | > 100 µM (inactive) | 35.5 µM (inactive) | > 100 µM (inactive) | > 100 µM (inactive) | > 100 µM (inactive) | > 100 µM (inactive) | > 100 µM (inactive) | > 100 µM (inactive) | 15 µM (inactive) | > 100 µM (inactive) | > 100 µM (inactive) | > 100 µM (inactive) | 89.1 µM (inactive) | > 100 µM (inactive) | > 100 µM (inactive)
9 | O=C(N/N=C/c1ccccc1O)c1ccccc1Nc1ccccc1C(=O)N/N=C/c1ccccc1O | 0.303 µM (active) | 0.617 µM (active) | 0.277 µM (active) | 0.255 µM (active) | 2.25 µM (inactive) | 0.859 µM (active) | 0.29 µM (active) | 0.518 µM (active) | 0.154 µM (active) | 0.541 µM (active) |  | 3.09 µM (inactive) | > 100 µM (inactive) | 1.69 µM (inactive) | 0.214 µM (active) | 0.182 µM (active) | 2.26 µM (inactive) | > 100 µM (inactive) | > 100 µM (inactive)
10 | CN(O)C(=O)Cc1ccc(OCc2cccc(Cl)c2)cc1 | > 100 µM (inactive) | > 100 µM (inactive) | > 100 µM (inactive) | > 100 µM (inactive) | > 100 µM (inactive) | 40.4 µM (inactive) |  | > 100 µM (inactive) | > 100 µM (inactive) | > 100 µM (inactive) | > 100 µM (inactive) | > 100 µM (inactive) | > 100 µM (inactive) | > 100 µM (inactive) | > 100 µM (inactive) | > 100 µM (inactive) | > 100 µM (inactive) | > 100 µM (inactive) | 1.23 µM (inactive)
11 | CCCCc1ccc(Nc2nc(Cl)c3c(ncn3C3CC(Oc4ccc(C)cc4)C(COc4ccc(C)cc4)O3)n2)cc1 (stereo not drawn) | > 100 µM (inactive) | > 100 µM (inactive) | > 100 µM (inactive) | > 100 µM (inactive) | > 100 µM (inactive) | > 100 µM (inactive) | > 100 µM (inactive) | > 100 µM (inactive) | > 100 µM (inactive) | > 100 µM (inactive) | > 100 µM (inactive) | 22.8 µM (inactive) | > 100 µM (inactive) | 87.7 µM (inactive) | > 100 µM (inactive) |  | > 100 µM (inactive) | > 100 µM (inactive) | > 100 µM (inactive)
12 | Cc1ccc(/N=N/NCCCCN)cc1 | > 100 µM (inactive) | > 100 µM (inactive) | > 100 µM (inactive) | > 100 µM (inactive) | > 100 µM (inactive) | > 100 µM (inactive) | > 100 µM (inactive) | > 100 µM (inactive) | 10.1 µM (inactive) | 23.8 µM (inactive) | > 100 µM (inactive) | > 100 µM (inactive) | > 100 µM (inactive) | 3.79 µM (inactive) | > 100 µM (inactive) |  | > 100 µM (inactive) | > 100 µM (inactive) | > 100 µM (inactive)
13 | CC(C)(C)OC(=O)N(CCCCN(CCCNC(=O)C(F)(F)F)C(=O)OC(C)(C)C)CCCNC(=O)C(F)(F)F | > 100 µM (inactive) | 47.1 µM (inactive) | 24 µM (inactive) | > 100 µM (inactive) | > 100 µM (inactive) | > 100 µM (inactive) |  | > 100 µM (inactive) | > 100 µM (inactive) | 79.3 µM (inactive) | > 100 µM (inactive) | > 100 µM (inactive) | > 100 µM (inactive) | 60.3 µM (inactive) | > 100 µM (inactive) | > 100 µM (inactive) | > 100 µM (inactive) | > 100 µM (inactive) | > 100 µM (inactive)
14 | O=[N+]([O-])c1cccc(-c2csc(N/N=C3\NC/C(=C/c4ccc5c(c4)OCO5)S3)n2)c1 | 28.4 µM (inactive) | 38.4 µM (inactive) | 18.2 µM (inactive) | 23.3 µM (inactive) | 33.8 µM (inactive) | 29.9 µM (inactive) |  | 22.4 µM (inactive) | 50.7 µM (inactive) | 17.3 µM (inactive) | 37.2 µM (inactive) | 15.4 µM (inactive) | 31.9 µM (inactive) | 26.6 µM (inactive) | 38.4 µM (inactive) |  | 16.1 µM (inactive) | 28.4 µM (inactive) | 15.2 µM (inactive)

From ChEMBL document CHEMBL1201862, “PubChem BioAssay data set” (2004)
